Assay: xn = mol fraction of the nth substance listed
Settings: 101 kPa, Liquid; for viscosity: Capillary tube (Ostwald / Ubbelohde) method

O=CO [formic acid] + CN(C)C=O
Settings	mass density [kg/m3]	viscosity [mPa·s]
303.15 K, x1 = 0.1001	953.65	0.831
303.15 K, x1 = 0.2	969.23	0.93
303.15 K, x1 = 0.3001	986.66	1.048
303.15 K, x1 = 0.4	1006.16	1.186
303.15 K, x1 = 0.4999	1027.99	1.324
303.15 K, x1 = 0.6003	1053.17	1.466
303.15 K, x1 = 0.7005	1081.71	1.555
303.15 K, x1 = 0.7998	1115.25	1.562
303.15 K, x1 = 0.9002	1157.02	1.533
303.15 K, x1 = 1	1205.07	1.437
313.15 K, x1 = 0.1001	943.97	0.738
313.15 K, x1 = 0.2	959.57	0.815
313.15 K, x1 = 0.3001	977.07	0.92
313.15 K, x1 = 0.4	996.43	1.028
313.15 K, x1 = 0.4999	1018.12	1.143
313.15 K, x1 = 0.6003	1043.03	1.253
313.15 K, x1 = 0.7005	1071.28	1.313
313.15 K, x1 = 0.7998	1104.39	1.342
313.15 K, x1 = 0.9002	1145.58	1.33
313.15 K, x1 = 1	1192.81	1.205
323.15 K, x1 = 0.1001	934.86	0.662
323.15 K, x1 = 0.2	950.34	0.725
323.15 K, x1 = 0.3001	967.77	0.808
323.15 K, x1 = 0.4	986.86	0.898
323.15 K, x1 = 0.4999	1008.39	0.992
323.15 K, x1 = 0.6003	1033.04	1.076
323.15 K, x1 = 0.7005	1060.99	1.121
323.15 K, x1 = 0.7998	1093.73	1.14
323.15 K, x1 = 0.9002	1134.05	1.117
323.15 K, x1 = 1	1180.63	1.022
333.15 K, x1 = 0.1001	924.58	0.59
333.15 K, x1 = 0.2	939.91	0.649
333.15 K, x1 = 0.3001	957.33	0.72
333.15 K, x1 = 0.4	976.15	0.793
333.15 K, x1 = 0.4999	997.5	0.867
333.15 K, x1 = 0.6003	1021.94	0.933
333.15 K, x1 = 0.7005	1049.51	0.971
333.15 K, x1 = 0.7998	1081.77	0.982
333.15 K, x1 = 0.9002	1121.74	0.959
333.15 K, x1 = 1	1167.44	0.879
343.15 K, x1 = 0.1001	915.36	0.538
343.15 K, x1 = 0.2	930.7	0.587
343.15 K, x1 = 0.3001	947.93	0.643
343.15 K, x1 = 0.4	966.58	0.708
343.15 K, x1 = 0.4999	987.75	0.768
343.15 K, x1 = 0.6003	1011.92	0.823
343.15 K, x1 = 0.7005	1039.13	0.85
343.15 K, x1 = 0.7998	1070.96	0.857
343.15 K, x1 = 0.9002	1110.03	0.835
343.15 K, x1 = 1	1154.99	0.766
353.15 K, x1 = 0.1001	905.11	0.492
353.15 K, x1 = 0.2	920.26	0.534
353.15 K, x1 = 0.3001	937.3	0.582
353.15 K, x1 = 0.4	955.9	0.635
353.15 K, x1 = 0.4999	976.91	0.693
353.15 K, x1 = 0.6003	1000.84	0.732
353.15 K, x1 = 0.7005	1027.78	0.754
353.15 K, x1 = 0.7998	1059.18	0.756
353.15 K, x1 = 0.9002	1097.86	0.736
353.15 K, x1 = 1	1142.08	0.677

CC(=O)O [acetic acid] + CN(C)C=O
Settings	mass density [kg/m3]	viscosity [mPa·s]
303.15 K, x1 = 0.1004	950.1	0.847
303.15 K, x1 = 0.2009	961.18	0.967
303.15 K, x1 = 0.3012	972.65	1.108
303.15 K, x1 = 0.4014	984.49	1.283
303.15 K, x1 = 0.5014	996.33	1.457
303.15 K, x1 = 0.6014	1007.74	1.613
303.15 K, x1 = 0.7011	1018.12	1.656
303.15 K, x1 = 0.8008	1027.13	1.582
303.15 K, x1 = 0.9006	1034.47	1.375
303.15 K, x1 = 1	1038.66	1.059
313.15 K, x1 = 0.1004	940.75	0.75
313.15 K, x1 = 0.2009	951.76	0.848
313.15 K, x1 = 0.3012	963.18	0.973
313.15 K, x1 = 0.4014	974.95	1.112
313.15 K, x1 = 0.5014	986.68	1.249
313.15 K, x1 = 0.6014	997.98	1.357
313.15 K, x1 = 0.7011	1008.11	1.39
313.15 K, x1 = 0.8008	1016.84	1.331
313.15 K, x1 = 0.9006	1023.84	1.166
313.15 K, x1 = 1	1027.37	0.92
323.15 K, x1 = 0.1004	931.27	0.669
323.15 K, x1 = 0.2009	942.27	0.752
323.15 K, x1 = 0.3012	953.63	0.85
323.15 K, x1 = 0.4014	965.33	0.965
323.15 K, x1 = 0.5014	976.95	1.071
323.15 K, x1 = 0.6014	988.11	1.157
323.15 K, x1 = 0.7011	998.02	1.18
323.15 K, x1 = 0.8008	1006.49	1.132
323.15 K, x1 = 0.9006	1013.13	1.002
323.15 K, x1 = 1	1016.08	0.804
333.15 K, x1 = 0.1004	921.19	0.597
333.15 K, x1 = 0.2009	932.18	0.673
333.15 K, x1 = 0.3012	943.49	0.755
333.15 K, x1 = 0.4014	955.11	0.843
333.15 K, x1 = 0.5014	966.55	0.935
333.15 K, x1 = 0.6014	977.59	0.998
333.15 K, x1 = 0.7011	987.28	1.015
333.15 K, x1 = 0.8008	995.48	0.976
333.15 K, x1 = 0.9006	1001.78	0.87
333.15 K, x1 = 1	1005.04	0.709
343.15 K, x1 = 0.1004	911.56	0.547
343.15 K, x1 = 0.2009	922.54	0.607
343.15 K, x1 = 0.3012	933.82	0.674
343.15 K, x1 = 0.4014	945.35	0.749
343.15 K, x1 = 0.5014	956.68	0.824
343.15 K, x1 = 0.6014	967.55	0.873
343.15 K, x1 = 0.7011	977.06	0.885
343.15 K, x1 = 0.8008	984.99	0.852
343.15 K, x1 = 0.9006	990.93	0.764
343.15 K, x1 = 1	993.69	0.632
353.15 K, x1 = 0.1004	901.58	0.499
353.15 K, x1 = 0.2009	912.55	0.551
353.15 K, x1 = 0.3012	923.82	0.608
353.15 K, x1 = 0.4014	935.28	0.67
353.15 K, x1 = 0.5014	946.48	0.73
353.15 K, x1 = 0.6014	957.19	0.771
353.15 K, x1 = 0.7011	966.49	0.78
353.15 K, x1 = 0.8008	974.17	0.751
353.15 K, x1 = 0.9006	979.73	0.677
353.15 K, x1 = 1	982.95	0.57

Reference: the NIST ThermoML archive (doi:10.1021/je700755t)
